# Patent CN110693875A, “一种预防或治疗性功能障碍的药物组合物及其用途” (Chengdu Baiyu Pharmaceutical Co Ltd, priority 2018, dated 2020)
# What was measured:
# ED patient (ED) = assay: Clinical observation 1: ED patient, hypertension; assay type: in vivo, human; settings: oral sildenafil 3 months, before the combination
# [1] = tested on: patient with erectile dysfunction (勃起功能障碍); assay: Clinical observation 2: patient with erectile dysfunction and premature ejaculation; assay type: in vivo, human; settings: oral sildenafil 3 months, before the combination
# [2] = tested on: vascular ED rabbit model (血管性ED家兔模型); assay: Test example 1: mating test in vascular ED rabbits; assay type: in vivo, New Zealand white rabbit; settings: alprostadil alone, intracavernosal; for sexual activity parameters overall vs model group: once daily 1 week
# [3] = tested on: aged rat ED model (老年性大鼠ED模型); assay: Test example 2: apomorphine-induced erection and electrically evoked erection in aged rats; assay type: in vivo, SD rat; settings: alprostadil alone, intracavernosal, 14 days
# [4] = tested on: neurogenic ED rat model (神经性ED大鼠模型); assay: Test example 3: mating behaviour in rats with cavernous nerve injury; assay type: in vivo, SD rat; settings: alprostadil alone, intracavernosal, 14 days
SMILES,attempted intercourse with sufficient sexual stimulation (ED patient (ED)),IIEF-5 score after sildenafil (ED patient (ED); baseline 4),intercourse satisfaction [1],overall satisfaction [1],IIEF-5 score after sildenafil ([1]; baseline 12),observed parameters vs control group ([2]; high dose 5μg/kg),sexual activity parameters overall vs model group ([2]; high dose 5μg/kg),sexual activity parameters overall vs model group ([2]; low dose 0.05μg/kg),sexual activity parameters overall vs model group ([3]; high dose 10μg/kg),"sexual activity parameters overall vs model group ([3]; low dose, printed 0.02μg/kg)",sexual activity parameters overall vs model group ([4]; high dose 10μg/kg),sexual activity parameters overall vs model group ([4]; low dose 0.1μg/kg)
CCCc1nn(C)c2c(=O)[nH]c(-c3cc(S(=O)(=O)N4CCN(C)CC4)ccc3OCC)nc12 [西地那非],尝试性交失败,5,未得到提高,略有下降,12,,,,,,,
"CCCCC[C@H](O)/C=C/[C@H]1[C@H](O)CC(=O)[C@@H]1CCCCCCC(=O)O [前列地尔, (1R,2R,3R)-3-羟基2-[(E)-(3S)-3-羟基-1-辛烯基]-5-氧代环戊烷庚酸]",,,,,,趋向于对照组,总体优于模型组,总体优于模型组,总体优于模型组,总体优于模型组,总体优于模型组,总体优于模型组
